# Source: patent US4520029A, “Farnesene derivatives, mucosal stabilizing compositions and method of manufacturing the same” (Kotobuki Seiyaku Co., Ltd., priority 1980, dated 1985)
# How the values were obtained:
# [1] = test system: carragenin-induced rat paw edema; assay: Carragenin-induced rat paw edema (anti-inflammatory effect); assay type: in vivo; settings: 300 mg/kg oral, Wister rat, maximum percentage inhibition during 4 hours after administration
# Experimental: The anti-inflammatory effect of these compounds on carragenin-induced rat paw edema was examined in accordance with the method of C. A. Winter (J. Pharmacol. 141, 369, […]. The compounds of the present invention were suspended in 1% methyl-cellulose and orally administered at a dose of 300 mg/kg to Wister rat, weighing about 140 g. The maximum percentage inhibition during 4 hours after administration was calculated as follows: [formula] The results are shown in Table 3.
# [2] = test system: gastric epithelial cell; assay: Gastric epithelial cell stabilizing effect in pylorus-ligated rats (NANA in gastric juice); assay type: in vivo, rat; settings: male Donryu rats, oral three times a day for five days, 8 hours after pylorus ligation; for NANA content in gastric juice, free: control 22.5, * P < 0.05 vs control (V, VI and VII all marked *); for NANA content in gastric juice, bound: control 93.3; for NANA content in gastric juice, bound / NANA content in gastric juice, total: * P < 0.05 vs control (only V marked *); for NANA content in gastric juice, total: control 115.8
# Experimental: The investigation of the gastric epithelial cell stabilizing effects of these compounds were examined in rats. Male Donryu strain rats, weighing about 200 g, were given the test compound orally three times a day for five days. On the fifth day the animals were fasted for 24 hours, and submitted to pylorus ligation under light ether anesthesia. The test compounds were given just after pylorus ligation orally. After 8 hours of ligation, the rats were sacrificed and the volume of gastric juice was measured. After centrifuging 6 ml of this gastric juice at 5000 r.p.m., 2 ml of the resulting supernatant was submitted to N-acetyl neuraminic acid (NANA) determination according to the method of D. Aminoff (D. Aminoff et al., Biochem. J. […], 384-392 (1961)).
# [3] = test system: stress ulcer; assay: Stress ulcer in rats (anti-ulcerative action); assay type: in vivo, rat; settings: 100 mg/kg per os, male Wister rats, 30 minutes before the stress; stressing 18 hours; control 4.6 ± 0.70
# Experimental: To study the anti-ulcerative actions of these compounds of the present invention further, the stress ulcer was selected. Male Wister rats, weighing 200-250 g were subjected to stress according to Takagi et al. (Chem. Pharm. Bull 12, 465, 1964). These compounds were suspended in 1% methyl cellulose and were administered to the rat at a dose of 100 mg/kg body weight per os, 30 minutes before the stress. After stressing for 18 hours, the animals were killed by a blow on the head. The removed stomach was filled with 1% formalin solution, placed in 1% formalin solution for 15 minutes and was then cut open along the greater curvature and examined for lesion to obtain the ulcer index. The ulcer index was determined in six grades (0-5; 5 implying perforation of stomach).
# [4] = Acute toxicity in ddY strain mice, up and down method, oral; settings: mouse, in vivo, suspended in 1% methyl cellulose, given orally, observation 24 hours, read-out: LD50 (per os)
# Experimental: Acute toxicity of the compounds of the present invention in ddY strain mice was determined by the up and down method, with observation for 24 hours. The compounds in this experiment were suspended in 1% methyl cellulose and given orally.
Compound,Maximum inhibition [1],"NANA content in gastric juice, free [2]","NANA content in gastric juice, bound [2]","NANA content in gastric juice, total [2]","Score (ulcer index, six grades 0-5; 5 implying perforation of stomach) [3]",LD50 at 24 h [4]
"CC(C)=CCCC(C)=CCCC(C)=CCOC(=O)CC=C(C)CCC=C(C)CCC=C(C)C [Compound V, Farnesyl farnesyl carboxylate]",35.8%,17.6 µg/mL,74.5 µg/mL,92.1 µg/mL,1.8 ± 0.50,24500 mg/kg
"CC(C)=CCCC(C)=CCCC(C)=CCNC(=O)CC=C(C)CCC=C(C)CCC=C(C)C [Compound VI, N-Farnesyl farnesyl carboxamide]",30.1%,18.3 µg/mL,87.4 µg/mL,105.7 µg/mL,2.3 ± 0.72,18700 mg/kg
"CC(C)=CCCC(C)=CCCC(C)=CCNC(=O)OCC=C(C)CCC=C(C)CCC=C(C)C [Compound VII, N-Farnesyl farnesyl carbamate]",23.7%,16.7 µg/mL,81.3 µg/mL,98.3 µg/mL,2.1 ± 0.41,20200 mg/kg
